The numbers were not newly measured in JP2007126392A, “タンパク質のリフォールディング剤” (Sanyo Chemical Industries Ltd, priority 2005, dated 2007), which cites them from elsewhere.

Usually pKa stands for the pH at which an ionisable group is half protonated.

For this data set the following is noted: first acid dissociation constant (pKa1) where several protons dissociate.

For the molecule `O[Si](O)(O)O` [ケイ酸], the pKa was 9.86.
